Several values for one entry are separate records, joined by “and”; a condition that tells them apart may be missing. Identical values can stand only once. Non-standard residues stand in square brackets, D forms with d. Residues, ends and D or L forms follow the SMILES beside them. No end group written: not given here.

Series [1] is described as follows: solubility comparison of peptides. Particulars: for maximum soubility: in the minimal solvent. The series is classed as physicochemical. The text has this:
(§1) The solubility, activity and stability (resistance to freezing/thawing) of the P8F and P8RI peptides were compared to previously used peptides comprising the membrane-proximal sequences of CD31.

The test system of series [2] is occlusive thrombus in apoE KO mice. The series can be described thus: acute thrombosis model, ligation of the left common carotid artery in atherosclerotic apoE KO mice. The series is classed as in vivo. How it is done:
Atherosclerotic mice were treated with P8F at 2.5, 5 or 10 mg/kg/day, with aspirin as a positive control and vehicle as a negative control.
The width of the columns is proportional to the number of mice included in each group (Aspirin=5, “2.5”=7, “5”=11, “10”=7, Vehicle=8). P<0.05 for all groups vs vehicle (Veh).
The P8F sequence was also used in vivo (subcutaneous administration of different doses: 2.5, 5 and 10 mg/kg/d) in atherosclerotic mice (apoE KO, 35 weeks of age, male, chow diet) subjected to the ligation of the left common carotid artery (a model of acute thrombosis). Due to advanced age, most of the mice had already developed an atherosclerotic lesion close to the site where the ligation was performed.

Series [3] in a line: stability, resistance to repeated freeze-thaw cycles (loss of activity). Particulars: number of cycles after which activity was diminished or abolished. The series is classed as physicochemical. The procedure:
as §1
Stability was determined by subjecting the peptides to repeated freeze-thaw cycles and determining the number of cycles after which ED 50 was increased and/or biological activity abolished.

The subject of a further series is Jurkat T cells. In words: calcium mobilization test using Jurkat T cells after TCR stimulation. The series is classed as cell-based. How it is done:
Jurkat T cells were preincubated with the fluo 3-AM calcium probe and stimulated by cross-linking the TCR with anti-CD3 antibodies and secondary antibody F(ab′)2 fragments.
Jurkat T cells (10×10^6/ml) were preincubated with the fluo 3-AM calcium probe and stimulated by cross-linking the TCR with anti-CD3 antibodies and secondary antibody F(ab′)2 fragments.
Activity was determined using the calcium mobilization test using Jurkat T cells, as described above.
A general note: A change in cytosolic calcium serves as a functional read-out for many receptors and channels.

For series [4], the system named is human platelet aggregation. In words: platelet aggregation on collagen-coated microcapillaries under flow (whole blood perfusion). The format is cell-based. Particulars: soluble peptide, 1500 seconds^−1, first 5 minutes. The procedure: The microcapillaries of Vena8 Fluoro+™ biochip (400 μm width×100 μm depth×20 mm length, Cellix) were coated with 2.5 mg/ml insoluble horse type I collagen overnight at 4° C. and then blocked with 0.1% HSA for 1 hour at room temperature. Human peripheral whole blood, anticoagulated with P-PACK (a direct thrombin inhibitor, non-chelating agent) was labeled with 5 μM DiOC6 for 10 minutes before perfusion with the Cellix pump at 1500 seconds^−1 through the coated capillaries. The interaction of platelets with the matrix was viewed in real time under a fluorescence microscope and was saved for off-line analysis. The surface covered by aggregated platelets was analyzed frame by frame (24 frames/s) over the first 5 minutes and expressed as coverage %.

As to `CC(C)C[C@@H](NC(=O)[C@@H](C)NC(=O)[C@H]1CCCN1C(=O)[C@@H](Cc1c[nH]c2ccccc12)NC(=O)[C@H](N)CCCCN)C(=O)N[C@H](Cc1ccccc1)C(=O)N[C@@H](C(=O)N[C@H](CCCNC(=N)N)C(=O)O)C(C)C` [P8RI, H-kwpalfvr-OH] (H-[dK][dW][dP][dA][dL][dF][dV][dR]-OH), in series [1], the minimal solvent result is on record as “water”, the solubility in water result is reported as “soluble in water” and the maximum soubility is 30.5 mg/mL.

Take `CC(=O)Oc1ccccc1C(=O)O` [aspirin, reference compound]: in series [2] (aspirin s.c. 150 mg/kg/d), the occlusive thrombus found result is “No occlusive thrombus”.

As to H-RVFLAPWK-OH [P8F], in series [1], the minimal solvent result is reported as “water”, the solubility in water result is on record as “soluble in water” and the maximum soubility was 28.1 mg/mL. The “antithrombotic effect relative to reference drug” value in series [2] (5 mg/Kg/d s.c., vs aspirin 150 mg/kg/d s.c.) is listed as “same extent of antithrombotic effect as the reference drug”. Further, the occlusive thrombus found entry in series [2] (5 mg/ml group (so in the source)) was “No occlusive thrombus”. In addition, the “number of sections showing an occlusive thrombus, out of 1000 sections/sample” value in series [2] (P8F-treated mice vs vehicle) is recorded as “significantly lowered”. For the same compound, the “appearance of an occlusive thrombus” value in series [2] (s.c. 2.5, 5 and 10 mg/kg/d, all tested doses) was “effective in preventing the appearance of an occlusive thrombus”. Besides, in series [3], the maximum freeze/thaw cycles came to 3 cycles. In addition, the “intracellular calcium mobilization (median fluorescence intensity of fluo-3AM probe)” value with Jurkat T cells (60 μg/ml peptide, Jurkat cells, TCR stimulation with anti-CD3 + F(ab')2) is “delayed and reduced”. The EC50 in the series on Jurkat T cells (Jurkat cells stimulated with antiCD3+Fab antibodies, read-out: ED 50 (minimal dose producing 50 percent of the maximum obtainable inhibition of intracellular calcium mobilization)) is 25 µM. Further, in series [4], the “human platelet aggregation (surface coverage %)” value is recorded as “inhibit human platelet aggregation in a dose dependent manner”.

For the compound “SMRTSPRSSTLAVRVFLAPWKK [P22 mouse, reference compound]”, in series [1], the minimal solvent was 10% Acetonitrile, and 5% acetic acid; the maximum soubility is 15.9 mg/mL.

For the compound VRVFLAPWKK [PepReg, reference compound], in series [1], the minimal solvent was 10% Acetonitrile, and 5% acetic acid; the maximum soubility was 8.1 mg/mL.

(Values after US10815272B2, “CD31 peptides” (INSTITUT NATIONAL DE LA SANTE ET DE LA RECHERCHE MEDICALE …, priority 2012, dated 2020).)
